Experimental data reported in paper PMC11141866, “Pyrimidine depletion enhances targeted and immune therapy combinations in acute myeloid leukemia” (JCI Insight, 2024).
Several values for one entry are separate records, joined by “and”; a condition that tells them apart may be missing. Equal values may be shown once.

What was measured:
CYP 2B6 = CYP 2B6 (Homo sapiens, UniProt P20813); assay: CYP inhibition 2B6; type: in vitro ADME
Text: (§1) Supplement jciinsight-9-173646-s083.xlsx, sheet "Supplemental Table S.2." | column: HOSU-53

[1] = system: plasma dihydroorotate (DHO); assay: Single-dose PD: plasma DHO accumulation in mice; type: in vivo, male C57BL/6 mice; conditions: HOSU-53 10 mpk PO, per mouse
Description: (§2) In the i.v. cohort, serial blood samples were collected in tubes containing K2EDTA at 0.083, 0.25, 0.5, 1, 2, 6, 24, 48, and 72 hours postdose while in the oral gavage cohort, serial blood samples were collected at 0.25, 0.5, 1, 2, 4, 8, 24, 48, and 72 hours postdose. Blood samples were processed to plasma to analyze for HOSU-53 and L-dihydroorotic acid (DHO) concentrations using liquid chromatography-tandem mass spectrometry. page 6: Plasma samples were obtained following appropriate dosing administration and saved in the -80°C freezer till the time of analysis. Analyses by LC-MS/MS followed sample extraction by protein precipitation and separation by Ultra Performance Liquid Chromatography (UPLC, Waters Corporation, MA, USA) using a C18 column, 1.7um, 2.1x50mm, Mobile Phase A: 5:95:0.1 (v:v:v) Acetonitrile:Water:Formic Acid, Mobile Phase B: 50:50:0.1 (v:v:v) Methanol:Acetonitrile:Formic Acid. MS/MS analyses were performed on an API-6500 (Absciex MA, USA) in positive mode using an electrospray source at 550°C. The internal standard was d4-AEA monitored at 352.2 and 66.0 m/z transitions and the target analyte, HOSU-53, was monitored at 416.5 and 331.1 m/z transitions. The assay was qualified between 10-5,000 ng/ml HOSU53 to be within ±20% for QCs above the LLOQ in this range and ±25% at the LLOQ. DHO concentration quantification in mouse plasma samples. Plasma samples were obtained following appropriate dosing administration and saved in the -80°C freezer till the time of analysis. Analyses by LC-MS/MS followed sample extraction by protein precipitation and separation by Ultra Performance Liquid Chromatography (UPLC, Waters Corporation, MA, USA) using a Phenomenex Aqua C18 100x4.6mm, 3uM, […], Mobile Phase A: 100:0.1 (v:v) Water:Formic Acid, Mobile Phase B: 100:0.1 (v:v) Methanol:Formic Acid. MS/MS analyses were performed on an API-4000 (Absciex MA, USA) in negative mode using an electrospray source at 550°C. The internal standard was labeled 13C14_L-Dihydroorotic Acid monitored at 161.3 and 117.1 m/z transitions and the target analyte, L-Dihydroorotic Acid (DHO), was monitored at 157.0 and 70.0 m/z transitions. The assay was qualified between 10.0-30,000 ng/ml DHO to be within ±20% for QCs above the LLOQ in this range and ±25% at the LLOQ.

THP-1 cells = assay: E. coli phagocytosis assay; type: cell-based, human; conditions: THP-1 treated 6 days
Description: The THP-1 AML cell line was treated for 6 days, then washed and cocultured with pHrodo Deep Red E. coli BioParticles (P35360, Invitrogen) per the manufacturer’s protocol. Ten-minute pretreatment with 10 μM of cytochalasin D (actin polymerization inhibitor) was used as a negative control for phagocytosis. After 90 minutes of incubation with E. coli, cells were washed and run on the Cytek Aurora spectral flow cytometer.

PPARγ = target: T1, PPARγ (Homo sapiens, UniProt P37231); assay: CEREP Safety Screen 87; type: binding; conditions: 1 µM
T1 construct: purchased CEREP (Safety Screen 87 panel, as the earlier reading names the assay)
T1 sequence (P37231 whole entry): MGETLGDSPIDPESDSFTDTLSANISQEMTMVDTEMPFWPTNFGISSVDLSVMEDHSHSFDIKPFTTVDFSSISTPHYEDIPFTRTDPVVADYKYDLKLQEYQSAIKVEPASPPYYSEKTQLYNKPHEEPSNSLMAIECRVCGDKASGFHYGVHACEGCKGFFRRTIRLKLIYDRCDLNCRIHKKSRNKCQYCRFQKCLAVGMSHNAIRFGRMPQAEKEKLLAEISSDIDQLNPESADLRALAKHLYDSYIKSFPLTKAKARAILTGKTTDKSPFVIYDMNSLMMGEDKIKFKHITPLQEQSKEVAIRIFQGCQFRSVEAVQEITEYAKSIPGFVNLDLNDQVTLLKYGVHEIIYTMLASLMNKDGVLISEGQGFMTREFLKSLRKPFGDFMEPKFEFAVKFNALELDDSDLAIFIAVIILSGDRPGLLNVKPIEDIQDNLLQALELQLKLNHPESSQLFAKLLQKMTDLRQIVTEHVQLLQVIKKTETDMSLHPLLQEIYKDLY
Text: as §1

[2] = Single-dose HOSU-53 PK in mice; type: in vivo, male C57BL/6 mice
Description: as §2

[3] = Mini-Ames Mutagenicity Test; conditions: CHO-WBL cells with and without S9 activation (so in the source)
Text: as §1

CYP 2C8 = CYP 2C8 (Homo sapiens, UniProt P10632); assay: CYP inhibition 2C8; type: in vitro ADME
Sequence of CYP 2C8 (P10632 whole entry): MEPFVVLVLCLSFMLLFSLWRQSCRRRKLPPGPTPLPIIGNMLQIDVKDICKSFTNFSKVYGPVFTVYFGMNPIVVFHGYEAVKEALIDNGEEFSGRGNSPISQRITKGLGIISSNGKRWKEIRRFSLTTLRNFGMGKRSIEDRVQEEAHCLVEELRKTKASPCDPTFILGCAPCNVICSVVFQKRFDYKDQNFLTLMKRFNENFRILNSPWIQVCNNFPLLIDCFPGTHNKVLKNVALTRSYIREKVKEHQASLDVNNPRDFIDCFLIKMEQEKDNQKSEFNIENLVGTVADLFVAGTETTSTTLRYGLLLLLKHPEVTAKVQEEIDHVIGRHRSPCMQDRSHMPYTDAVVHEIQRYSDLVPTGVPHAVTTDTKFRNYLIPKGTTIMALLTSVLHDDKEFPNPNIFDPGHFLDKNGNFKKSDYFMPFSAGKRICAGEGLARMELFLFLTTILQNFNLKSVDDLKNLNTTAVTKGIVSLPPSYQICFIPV
Text: as §1

Dog DHODH = Dog DHODH (Canis lupus familiaris, UniProt A0A8I3MWX2); assay: Cell-free multi-species DHODH enzyme inhibition assay, dog; type: biochemical; conditions: n=1
Sequence of Dog DHODH (A0A8I3MWX2 1-406): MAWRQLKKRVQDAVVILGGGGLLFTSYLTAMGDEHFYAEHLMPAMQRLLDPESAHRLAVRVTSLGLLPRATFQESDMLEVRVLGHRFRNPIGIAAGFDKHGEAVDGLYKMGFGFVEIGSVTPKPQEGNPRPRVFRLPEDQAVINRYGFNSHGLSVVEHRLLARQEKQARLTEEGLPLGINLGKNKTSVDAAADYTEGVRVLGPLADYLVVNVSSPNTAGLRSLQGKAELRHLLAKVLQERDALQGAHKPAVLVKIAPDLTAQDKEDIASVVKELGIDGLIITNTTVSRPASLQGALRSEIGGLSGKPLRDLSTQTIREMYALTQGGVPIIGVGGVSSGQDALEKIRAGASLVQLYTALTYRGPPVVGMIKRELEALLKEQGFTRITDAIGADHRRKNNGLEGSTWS

[4] = system: MOLM-13 disseminated CDX AML model; assay: MOLM-13 CDX synergy with anti-CD38 immunotherapy; type: in vivo, NCG mice; conditions: HOSU53 10 mpk qd; event 1 = death; 10 mg/kg
Description: Male 8- to 12-week-old male NCG mice were engrafted with 1 × 10^5 cells via tail vein i.v. injection. […] Figure 7, B and C, and Supplemental Figure 7, A and B, share 2 combined vehicle groups (n = 16 total).
Supplemental Figure S.7. […] Using the
daratumumab (Dara) (A) or biwk 2.5 mg/kg i.p isatuximab, Isa (B) anti-CD38 antibodies or a
Treatment was stopped at day
80. Adjusted FDR p-value *<0.05, nonsignificant (ns) ≥0.05.
Both Supplementary Figure S.7, A and B share the same vehicle and 4 mg/kg
(1 picture or pasted object on this page, not shown here)

CYP 2C9 = CYP 2C9 (Homo sapiens, UniProt P11712); assay: CYP inhibition 2C9; type: in vitro ADME
Sequence of CYP 2C9 (P11712 whole entry): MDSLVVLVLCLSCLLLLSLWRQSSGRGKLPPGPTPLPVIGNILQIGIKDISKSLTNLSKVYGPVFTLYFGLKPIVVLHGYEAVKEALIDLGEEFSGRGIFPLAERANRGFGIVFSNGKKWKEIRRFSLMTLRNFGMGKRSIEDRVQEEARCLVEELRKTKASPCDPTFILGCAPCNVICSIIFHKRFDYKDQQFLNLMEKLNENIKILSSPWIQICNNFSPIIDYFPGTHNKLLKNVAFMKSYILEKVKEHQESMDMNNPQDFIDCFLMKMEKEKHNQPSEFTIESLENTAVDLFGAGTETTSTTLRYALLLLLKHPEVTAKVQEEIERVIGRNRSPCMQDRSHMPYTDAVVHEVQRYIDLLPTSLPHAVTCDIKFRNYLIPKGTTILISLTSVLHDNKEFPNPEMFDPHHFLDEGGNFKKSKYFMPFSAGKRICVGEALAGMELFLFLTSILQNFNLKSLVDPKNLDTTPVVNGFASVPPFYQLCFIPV
Text: as §1

[5] = male, C57BL/6, plasma, po, 10 mg/kg p.o. single dose, mouse

Sequence of CYP 2B6 (P20813 whole entry): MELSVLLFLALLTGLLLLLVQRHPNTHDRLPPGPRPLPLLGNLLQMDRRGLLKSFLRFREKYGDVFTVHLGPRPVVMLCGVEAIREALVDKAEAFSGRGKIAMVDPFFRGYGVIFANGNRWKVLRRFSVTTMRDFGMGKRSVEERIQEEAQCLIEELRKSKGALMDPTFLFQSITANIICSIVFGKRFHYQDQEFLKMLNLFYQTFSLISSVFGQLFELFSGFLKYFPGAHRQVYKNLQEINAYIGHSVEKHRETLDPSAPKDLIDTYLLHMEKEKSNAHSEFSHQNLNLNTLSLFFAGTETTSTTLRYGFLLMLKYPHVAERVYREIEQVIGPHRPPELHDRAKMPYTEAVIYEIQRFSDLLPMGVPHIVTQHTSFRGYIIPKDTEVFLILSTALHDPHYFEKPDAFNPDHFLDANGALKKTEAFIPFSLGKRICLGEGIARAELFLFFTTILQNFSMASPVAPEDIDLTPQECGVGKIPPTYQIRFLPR

With `CCCCOc1cccc(-c2ccc(-c3cc(C(=O)O)c4cc(F)ccc4n3)cc2)c1` [HOSU-53] the IC50 (CYP 2B6) was 11200 nM, the DHO plasma concentration ([1]; 0.5 h postdose) was 0.2422 µM and the DHO plasma concentration ([1]; 1 h postdose, 10 mg/kg) was 0.6072 µM and 0.4288 µM and 0.8412 µM. For the same compound, the DHO plasma concentration ([1]; 2 h postdose, 10 mg/kg) was 2.068 µM and 1.512 µM and 1.613 µM, the DHO plasma concentration ([1]; 4 h postdose, 10 mg/kg) was 2.783 µM and 2.701 µM and 3.7758 µM and the DHO plasma concentration ([1]; 8 h postdose, 10 mg/kg) was 6.325 µM and 4.807 µM and 6.894 µM. For the same compound, the DHO plasma concentration ([1]; 24 h postdose, 10 mg/kg) was 9.613 µM and 11.9535 µM and 9.74 µM, the DHO plasma concentration ([1]; 48 h postdose, 10 mg/kg) was 4.364 µM and 4.453 µM and 2.467 µM and the DHO plasma concentration ([1]; 72 h postdose, 10 mg/kg) was 1.189 µM and 0.9613 µM and 1.132 µM. For the same compound, the “phagocytosis of E. coli” value (THP-1 cells) was “enhanced ability to phagocytose E. coli”, the “CEREP Safety Screen 87: PPARγ binding” value (PPARγ) was “PPARγ (66% binding at 1 µM)” and the HOSU-53 plasma concentration ([2]; 10 mpk PO, 0.25 h postdose, per mouse) was 130.695 µM and 175.464 µM. For the same compound, the HOSU-53 plasma concentration ([2]; 10 mpk PO, 0.5 h postdose, per mouse) was 155.968 µM and 199.774 µM, the HOSU-53 plasma concentration ([2]; 10 mpk PO, 1 h postdose, per mouse) was 185.332 µM and 227.213 µM and the HOSU-53 plasma concentration ([2]; 10 mpk PO, 2 h postdose, per mouse) was 171.131 µM and 199.774 µM. For the same compound, the HOSU-53 plasma concentration ([2]; 10 mpk PO, 4 h postdose, per mouse) was 168.002 µM and 190.146 µM, the HOSU-53 plasma concentration ([2]; 10 mpk PO, 8 h postdose, per mouse) was 182.925 µM and 197.848 µM and the HOSU-53 plasma concentration ([2]; 10 mpk PO, 24 h postdose, per mouse) was 152.839 µM and 120.105 µM. The HOSU-53 plasma concentration ([2]; 10 mpk PO, 48 h postdose, per mouse) was 81.835 µM and 67.6342 µM, the HOSU-53 plasma concentration ([2]; 10 mpk PO, 72 h postdose, per mouse) was 47.1755 µM and 36.5851 µM and the concentration at 0.25 h ([2]; male, C57BL/6, mouse, plasma, oral, 10 mg/kg, 10 mpk PO, 0.25 h postdose, per mouse) was 114 µM. It also gave a concentration at 0.5 h ([2]; male, C57BL/6, mouse, plasma, oral, 10 mg/kg, 10 mpk PO, 0.5 h postdose, per mouse) of 155 µM, a concentration at 1 h ([2]; male, C57BL/6, mouse, plasma, oral, 10 mg/kg, 10 mpk PO, 1 h postdose, per mouse) of 209 µM and a concentration at 2 h ([2]; male, C57BL/6, mouse, plasma, oral, 10 mg/kg, 10 mpk PO, 2 h postdose, per mouse) of 215 µM. For the same compound, the concentration at 4 h ([2]; male, C57BL/6, mouse, plasma, oral, 10 mg/kg, 10 mpk PO, 4 h postdose, per mouse) was 218 µM, the concentration at 8 h ([2]; male, C57BL/6, mouse, plasma, oral, 10 mg/kg, 10 mpk PO, 8 h postdose, per mouse) was 175 µM and the concentration at 24 h ([2]; male, C57BL/6, mouse, plasma, oral, 10 mg/kg, 10 mpk PO, 24 h postdose, per mouse) was 130 µM. For the same compound, the concentration at 48 h ([2]; male, C57BL/6, mouse, plasma, oral, 10 mg/kg, 10 mpk PO, 48 h postdose, per mouse) was 75.1 µM, the concentration at 72 h ([2]; male, C57BL/6, mouse, plasma, oral, 10 mg/kg, 10 mpk PO, 72 h postdose, per mouse) was 43.8 µM and the bioavailability ([2]; male, C57BL/6, plasma, oral, p.o. 10 mg/kg vs i.v. 3 mg/kg, mouse, read-out: Bioavailability (F)) was 85%. It also gave a Cmax [2, 5] of 210 µM, a half-life [2, 5] of 29 h and an AUC(0-t) ([2]; male, C57BL/6, plasma, po, 10 mg/kg p.o. single dose, mouse, read-out: Plasma AUC0–72h) of 7960 µM·h. The “Mini-Ames Mutagenicity Test” value [3] was “Negative”, the IC50 (CYP 2C8) was 1820 nM and the IC50 (Dog DHODH) was 1.25 nM. For the same compound, the “Day of Study (survival, per animal)” value [4] was 57 days and 64 days and 43 days and 63 days and 58 days and 62 days and 65 days and the IC50 (CYP 2C9) was 1160 nM.
